Data on 17 molecules can be found in US8912188B2, “Substituted quinoxaline carboxylic acids for the inhibition of PASK” (BioEnergenix, LLC, priority 2011, dated 2014).

In data set [1] the target is T1, PASK (Invitrogen) (Homo sapiens, UniProt Q96RG2).
T1 construct: IC50 Kinase Domain; purchased Invitrogen
Kind of data set: PAS Kinase FRET Assay. In kind it is biochemical. As to conditions: PAS kinase TR-FRET assay (665 nm/615 nm), 2 hours at 25° C.; read-out: IC50 Kinase Domain. A general note: TR-FRET usually uses a lanthanide donor and a delayed reading to cut background.

Data set [2] has as its target T2, PASK (UniProt #Q96RG2; human recombinant N-terminal GST tagged construct, residues 879-1323) (Homo sapiens, UniProt Q96RG2).
T2 construct: human recombinant N-terminal GST tagged construct, residues 879-1323; GST (N); host or cells: insect cells
Kind of data set: PASK ATP Radiochemical Assay. The class given is biochemical. As to conditions: 33P-ATP, Myelin Basic Protein substrate, 120 min at room temperature, read-out: IC50 Kinase Domain. The method, then:
Biochemical Assay for hPASK Activity
PASK ATP Radiochemical Assay
Test compounds in DMSO are then added and the mixture, followed by delivery of ^33P-ATP (specific activity 0.01 μCi/μl final) to initiate the reaction. […] The entire reaction mixture is washed through onto a P81 Phosphocellulose paper and washed three times for 10 minutes in 75 mM phosphoric acid and once in methanol prior to drying and scintillation counting.

A short description of data set [3]: In vivo pharmacokinetics in the Sprague Dawley rat. The settings on record: for bioavailability / half-life: blood; for bioavailability: po, 10 mg/kg; for bioavailability / half-life / volume of distribution: summary of Table 3; for t1/2 (half-life): intravenous 3 mg/kg (1 mg/kg for Example 105), oral 10 mg/kg; for Cl (clearance) / Vss (volume of distribution): intravenous via tail vein, 3 mg/kg (1 mg/kg for Example 105); for Tmax (time to maximum blood concentration after an oral dose): oral gavage 10 mg/kg; for F (oral bioavailability): oral gavage 10 mg/kg vs intravenous 3 mg/kg (1 mg/kg for Example 105). The method, then:
Pharmacokinetics of a PASK Inhibitor
The test compounds were formulated in polyethylene glycol and beta cyclodextrin in water for administration at 1 mg/kg for Example 105, and at 3 mg/kg for Example 14, 15, and 18 for intravenous administration via the tail vein and 10 mg/kg for oral administration by gavage. Blood samples were collected at 0.083, 0.25, 0.5, 1, 2, 4, 6, 8, and 24 hours and the samples were analyzed for test compounds content using LC/MS/MS. The data was submitted to pharmacokinetic analysis using WinNonLin software and the observed and calculated pharmacokinetic parameters are shown in Table 3 for each compound.

T1 sequence (Q96RG2 999-1251 limits assumed): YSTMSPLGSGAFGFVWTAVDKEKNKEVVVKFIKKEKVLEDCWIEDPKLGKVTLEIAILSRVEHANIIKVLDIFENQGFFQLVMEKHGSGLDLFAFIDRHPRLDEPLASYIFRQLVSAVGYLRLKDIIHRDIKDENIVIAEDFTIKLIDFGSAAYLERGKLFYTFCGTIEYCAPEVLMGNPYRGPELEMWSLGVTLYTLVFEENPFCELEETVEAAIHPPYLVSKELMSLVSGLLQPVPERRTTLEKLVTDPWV
T2 sequence (Q96RG2 879-1323, stated change not applied): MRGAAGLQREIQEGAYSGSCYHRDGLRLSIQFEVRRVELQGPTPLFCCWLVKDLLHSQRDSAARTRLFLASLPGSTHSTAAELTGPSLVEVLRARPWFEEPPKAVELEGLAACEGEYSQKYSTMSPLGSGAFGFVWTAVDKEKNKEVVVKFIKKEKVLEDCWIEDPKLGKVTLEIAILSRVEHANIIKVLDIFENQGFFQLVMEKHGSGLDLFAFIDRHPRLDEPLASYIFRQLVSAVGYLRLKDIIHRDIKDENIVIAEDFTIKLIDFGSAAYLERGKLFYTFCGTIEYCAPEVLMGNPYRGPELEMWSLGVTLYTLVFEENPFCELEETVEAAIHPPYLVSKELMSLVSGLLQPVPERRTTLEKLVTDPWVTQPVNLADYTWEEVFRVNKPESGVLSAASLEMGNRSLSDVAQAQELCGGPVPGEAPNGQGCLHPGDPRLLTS

Broadly, the IC50 is the concentration needed to halve the response being measured. By bioavailability is commonly meant dose-corrected exposure relative to a reference, in per cent. Read a low bioavailability as little systemic uptake. Broadly, the half-life is the time needed for the level to fall by half in the phase considered. Read a low half-life as rapid decline. In the case of `CC(C)N(C)c1nc2cc(C(=O)O)ccc2nc1-c1cc2cc(F)ccc2o1` [Example 18, 2-(5-Fluorobenzofuran-2-yl)-3-(isopropyl(methyl)amino)quinoxaline-6-carboxylic acid], the IC50 in data set [1] was under 10 µM. Further, the half-inhibitory concentration (IC50) in data set [2] is under 10 µM. For the same molecule, in data set [3], the bioavailability is at least 63%, the half-life was at least 3 h, the “t1/2 (half-life)” value is 7.72 h and the “Cl (clearance)” value worked out at 1.33 mL/min/kg. In addition, in data set [3], the “Vss (volume of distribution)” value was determined as 0.366 L/kg, the “Tmax (time to maximum blood concentration after an oral dose)” value (“Tmax” for short) amounted to 8 h, the “F (oral bioavailability)” value amounted to 74.8% and the volume of distribution result is listed as “low”.
As to `C[C@H]1COCCN1c1nc2cc(C(=O)O)ccc2nc1-c1ccc(F)cc1` [Example 105, (S)-2-(4-Fluorophenyl)-3-(3-methylmorpholino)quinoxaline-6-carboxylic acid], the IC50 in data set [1] was under 10 µM. Also, in data set [2], the IC50 was under 10 µM. Moreover, in data set [3], the bioavailability is over 74%, the half-life is over 7 h, the “t1/2 (half-life)” value was 7.72 h and the “Cl (clearance)” value stood at 0.712 mL/min/kg. In addition, in data set [3], the “Vss (volume of distribution)” value came to 0.407 L/kg, the “Tmax” value turned out to be 1 h, the “F (oral bioavailability)” value was 74.8% and the volume of distribution result is on record as “low”.
Turning to `CN(c1nc2cc(C(=O)O)ccc2nc1-c1ccc2[nH]ccc2c1)C1CC1` [Example 64, 3-[Cyclopropyl(methyl)amino]-2-(1H-indol-5-yl)quinoxaline-6-carboxylic acid], the half-maximal inhibitory concentration (IC50) in data set [1] and in data set [2] was under 10 µM each time.
For `C[C@H]1CCCN1c1nc2cc(C(=O)O)ccc2nc1-c1cc2ccccc2o1` [Example 14, (S)-2-(Benzofuran-2-yl)-3-(2-methylpyrrolidin-1-yl)quinoxaline-6-carboxylic acid], the IC50 in data set [1] is under 10 µM. Moreover, the half-inhibitory concentration (IC50) in data set [2] is under 10 µM. For the same molecule, in data set [3], the bioavailability is at least 63%, the half-life is at least 3 h, the “t1/2 (half-life)” value amounted to 3.68 h and the “Cl (clearance)” value was 1.72 mL/min/kg. Further, in data set [3], the “Vss (volume of distribution)” value is recorded as 0.362 L/kg, the “Tmax” value amounted to 6 h, the “F (oral bioavailability)” value was determined as 63.4% and the volume of distribution result was “low”.
As to `CC[C@@H](C)N(C)c1nc2cc(C(=O)O)ccc2nc1-c1cc2cc(F)ccc2o1` [Example 74, (R)-3-(sec-Butyl(methyl)amino)-2-(5-fluorobenzofuran-2-yl)quinoxaline-6-carboxylic acid], the IC50 in data set [1] and in data set [2] was under 10 µM in each case.
Regarding `CC(C)N(C)c1nc2cc(C(=O)O)ccc2nc1-c1cc(-c2ccccc2)co1` [Example 52, 3-[Methyl(propan-2-yl)amino]-2-(4-phenylfuran-2-yl)quinoxaline-6-carboxylic acid], the IC50 in data set [1] and in data set [2] was under 10 µM in each case.
Regarding `C[C@H]1CCCCN1c1nc2cc(C(=O)O)ccc2nc1-c1ccc(F)cc1F` [Example 116, (S)-2-(2,4-Difluorophenyl)-3-(2-methylpiperidin-1-yl)quinoxaline-6-carboxylic acid], the IC50 in data set [1] and in data set [2] was under 10 µM in each case.
As for `CN(c1nc2cc(C(=O)O)ccc2nc1-c1ccc(F)cc1)C1CCCCC1` [Example 108, 3-(Cyclohexyl(methyl)amino)-2-(4-fluorophenyl)quinoxaline-6-carboxylic acid], the concentration for half-maximal inhibition (IC50) in data set [1] and in data set [2] was under 10 µM in each case.
Take `CC(C)N(C)c1nc2cc(C(=O)O)ccc2nc1-c1ccc(F)cc1F` [Example 147, 2-(2,4-Difluorophenyl)-3-[methyl(propan-2-yl)amino]quinoxaline-6-carboxylic acid]: the IC50 in data set [1] and in data set [2] was under 10 µM in each case.
With `CC(C)N(C)c1nc2cc(C(=O)O)c(O)cc2nc1-c1ccc(F)cc1` [Example 120, 2-(4-Fluorophenyl)-7-hydroxy-3-(isopropyl(methyl)amino)quinoxaline-6-carboxylic acid], the IC50 in data set [1] and in data set [2] was under 10 µM each time.
As to `C[C@H]1CCCN1c1nc2cc(C(=O)O)ccc2nc1-c1ccc(F)c(F)c1` [Example 148, (S)-2-(3,4-Difluorophenyl)-3-(2-methylpyrrolidin-1-yl)quinoxaline-6-carboxylic acid], the IC50 in data set [1] and in data set [2] was under 10 µM throughout.
Consider `C[C@H]1CCCN1c1nc2cc(C(=O)O)ccc2nc1-c1ccc(F)cc1F` [Example 115, (S)-2-(2,4-Difluorophenyl)-3-(2-methylpyrrolidin-1-yl)quinoxaline-6-carboxylic acid], for which the half-inhibitory concentration (IC50) in data set [1] and in data set [2] was under 10 µM each time.
Consider `O=C(O)c1ccc2nc(-c3cc4ccc(F)cc4o3)c(N3CCCCCC3)nc2c1` [Example 48, 3-(Azepan-1-yl)-2-(6-fluoro-1-benzofuran-2-yl)quinoxaline-6-carboxylic acid], for which the half-inhibitory concentration (IC50) in data set [1] and in data set [2] was under 10 µM throughout.
On to `Cc1coc2ccc(-c3nc4ccc(C(=O)O)cc4nc3N(C)C(C)C)cc12` [Example 85, 3-[Methyl(propan-2-yl)amino]-2-(3-methyl-1-benzofuran-5-yl)quinoxaline-6-carboxylic acid], for which the concentration for half-maximal inhibition (IC50) in data set [1] and in data set [2] was under 10 µM in each case.
In the case of `CN(c1nc2cc(C(=O)O)ccc2nc1-c1cc2ccccc2o1)C1CC1` [Example 15, 2-(Benzofuran-2-yl)-3-(cyclopropyl(methyl)amino)quinoxaline-6-carboxylic acid], the half-inhibitory concentration (IC50) in data set [1] was under 10 µM. The concentration for half-maximal inhibition (IC50) in data set [2] is under 10 µM. In data set [3], the bioavailability was at least 63%, the half-life is at least 3 h, the “t1/2 (half-life)” value was determined as 3.39 h and the “Cl (clearance)” value stood at 1.4 mL/min/kg. Further, in data set [3], the “Vss (volume of distribution)” value is given as 0.347 L/kg, the “Tmax” value turned out to be 6 h, the “F (oral bioavailability)” value amounted to 79% and the volume of distribution entry is “low”.
As for `CC(C)N(C)c1nc2cc(C(=O)O)ccc2nc1-c1cc2ccc(F)cc2o1` [Example 45, 2-(6-Fluoro-1-benzofuran-2-yl)-3-[methyl(propan-2-yl)amino]quinoxaline-6-carboxylic acid], the half-maximal inhibitory concentration (IC50) in data set [1] and in data set [2] was under 10 µM each time.
As for `CC(=O)Nc1ccc(-c2nc3ccc(C(=O)O)cc3nc2N(C)C(C)C)cc1` [Example 149, 2-(4-Acetamidophenyl)-3-[methyl(propan-2-yl)amino]quinoxaline-6-carboxylic acid], the IC50 in data set [1] and in data set [2] was under 10 µM each time.
